Source: ChEMBL document CHEMBL1144385, “Solid-phase synthesis and antibacterial evaluations of N-demethylvancomycin derivatives” (2005)
Converted amounts (≈) assume the structure as drawn.

What was measured:
Type in all cases: functional
[1] = system: Staphylococcus aureus; experiment: Minimum inhibitory concentration against growth of Methicillin resistant […] aureus
[2] = system: Staphylococcus aureus; experiment: Minimum inhibitory concentration against growth of […] aureus (ATCC 29213)
[3] = system: Enterococcus faecalis; experiment: Minimum inhibitory concentration against growth of Enterococcus faecalis (ATCC 29212)
[4] = system: Enterococcus faecalis; experiment: Minimum inhibitory concentration against growth of vancomycin-resistant Enterococcus faecalis (ATCC 51299)

Structure (SMILES)	MIC [1]	MIC [2]	MIC [3]	MIC [4]
CN[C@H](CC(C)C)C(=O)N[C@H]1C(=O)N[C@@H](CC(N)=O)C(=O)N[C@H]2C(=O)N[C@H]3C(=O)N[C@H](C(=O)N[C@H](C(=O)NCC(=O)O)c4cc(O)cc(O)c4-c4cc3ccc4O)[C@H](O)c3ccc(c(Cl)c3)Oc3cc2cc(c3O[C@@H]2O[C@@H](CO)[C@@H](O)[C@H](O)[C@@H]2O[C@H]2C[C@](C)(NC(=O)OCC3c4ccccc4-c4ccccc43)[C@H](O)[C@H](C)O2)Oc2ccc(cc2Cl)[C@H]1O	5 µg/mL (≈ 2.89 µM)	> 10 µg/mL	10 µg/mL (≈ 5.79 µM)	5 µg/mL (≈ 2.89 µM)
CCC(CC)N[C@H](CC(C)C)C(=O)N[C@H]1C(=O)N[C@@H](CC(N)=O)C(=O)N[C@H]2C(=O)N[C@H]3C(=O)N[C@H](C(=O)N[C@H](C(=O)NCC(=O)O)c4cc(O)cc(O)c4-c4cc3ccc4O)[C@H](O)c3ccc(c(Cl)c3)Oc3cc2cc(c3O[C@@H]2O[C@@H](CO)[C@@H](O)[C@H](O)[C@@H]2O[C@H]2C[C@](C)(N)[C@H](O)[C@H](C)O2)Oc2ccc(cc2Cl)[C@H]1O	10 µg/mL (≈ 6.4 µM)	10 µg/mL (≈ 6.4 µM)	> 10 µg/mL	> 10 µg/mL
CCCN(CCC)[C@H](CC(C)C)C(=O)N[C@H]1C(=O)N[C@@H](CC(N)=O)C(=O)N[C@H]2C(=O)N[C@H]3C(=O)N[C@H](C(=O)N[C@H](C(=O)NCC(=O)O)c4cc(O)cc(O)c4-c4cc3ccc4O)[C@H](O)c3ccc(c(Cl)c3)Oc3cc2cc(c3O[C@@H]2O[C@@H](CO)[C@@H](O)[C@H](O)[C@@H]2O[C@H]2C[C@](C)(Nc3ccc(OC)cc3)[C@H](O)[C@H](C)O2)Oc2ccc(cc2Cl)[C@H]1O	10 µg/mL (≈ 5.94 µM)	> 10 µg/mL	> 10 µg/mL	> 10 µg/mL
CCC(CC)N[C@H](CC(C)C)C(=O)N[C@H]1C(=O)N[C@@H](CC(N)=O)C(=O)N[C@H]2C(=O)N[C@H]3C(=O)N[C@H](C(=O)N[C@H](C(=O)NCC(=O)O)c4cc(O)cc(O)c4-c4cc3ccc4O)[C@H](O)c3ccc(c(Cl)c3)Oc3cc2cc(c3O[C@@H]2O[C@@H](CO)[C@@H](O)[C@H](O)[C@@H]2O[C@H]2C[C@](C)(Nc3ccc(OC)cc3)[C@H](O)[C@H](C)O2)Oc2ccc(cc2Cl)[C@H]1O	> 10 µg/mL	> 10 µg/mL	> 10 µg/mL	> 10 µg/mL
C/C=C/CN(C/C=C/C)[C@H](CC(C)C)C(=O)N[C@H]1C(=O)N[C@@H](CC(N)=O)C(=O)N[C@H]2C(=O)N[C@H]3C(=O)N[C@H](C(=O)N[C@H](C(=O)NCC(=O)O)c4cc(O)cc(O)c4-c4cc3ccc4O)[C@H](O)c3ccc(c(Cl)c3)Oc3cc2cc(c3O[C@@H]2O[C@@H](CO)[C@@H](O)[C@H](O)[C@@H]2O[C@H]2C[C@](C)(Nc3ccc(OC)cc3)[C@H](O)[C@H](C)O2)Oc2ccc(cc2Cl)[C@H]1O	> 10 µg/mL	10 µg/mL (≈ 5.86 µM)	> 10 µg/mL	> 10 µg/mL
C/C=C/CN[C@H](CC(C)C)C(=O)N[C@H]1C(=O)N[C@@H](CC(N)=O)C(=O)N[C@H]2C(=O)N[C@H]3C(=O)N[C@H](C(=O)N[C@H](C(=O)NCC(=O)O)c4cc(O)cc(O)c4-c4cc3ccc4O)[C@H](O)c3ccc(c(Cl)c3)Oc3cc2cc(c3O[C@@H]2O[C@@H](CO)[C@@H](O)[C@H](O)[C@@H]2O[C@H]2C[C@](C)(Nc3ccc(OC)cc3)[C@H](O)[C@H](C)O2)Oc2ccc(cc2Cl)[C@H]1O	10 µg/mL (≈ 6.05 µM)	10 µg/mL (≈ 6.05 µM)	> 10 µg/mL	> 10 µg/mL
CCC(CC)N[C@H](CC(C)C)C(=O)N[C@H]1C(=O)N[C@@H](CC(N)=O)C(=O)N[C@H]2C(=O)N[C@H]3C(=O)N[C@H](C(=O)N[C@H](C(=O)NCC(=O)O)c4cc(O)cc(O)c4-c4cc3ccc4O)[C@H](O)c3ccc(c(Cl)c3)Oc3cc2cc(c3O[C@@H]2O[C@@H](CO)[C@@H](O)[C@H](O)[C@@H]2O[C@H]2C[C@](C)(Nc3ccc(Cl)cc3)[C@H](O)[C@H](C)O2)Oc2ccc(cc2Cl)[C@H]1O	> 10 µg/mL	> 10 µg/mL	> 10 µg/mL	> 10 µg/mL
CCCN[C@H](CC(C)C)C(=O)N[C@H]1C(=O)N[C@@H](CC(N)=O)C(=O)N[C@H]2C(=O)N[C@H]3C(=O)N[C@H](C(=O)N[C@H](C(=O)NCC(=O)O)c4cc(O)cc(O)c4-c4cc3ccc4O)[C@H](O)c3ccc(c(Cl)c3)Oc3cc2cc(c3O[C@@H]2O[C@@H](CO)[C@@H](O)[C@H](O)[C@@H]2O[C@H]2C[C@](C)(Nc3ccc(Cl)cc3)[C@H](O)[C@H](C)O2)Oc2ccc(cc2Cl)[C@H]1O	10 µg/mL (≈ 6.08 µM)	10 µg/mL (≈ 6.08 µM)	> 10 µg/mL	> 10 µg/mL
CC(C)C[C@H](C(=O)N[C@H]1C(=O)N[C@@H](CC(N)=O)C(=O)N[C@H]2C(=O)N[C@H]3C(=O)N[C@H](C(=O)N[C@H](C(=O)NCC(=O)O)c4cc(O)cc(O)c4-c4cc3ccc4O)[C@H](O)c3ccc(c(Cl)c3)Oc3cc2cc(c3O[C@@H]2O[C@@H](CO)[C@@H](O)[C@H](O)[C@@H]2O[C@H]2C[C@](C)(Nc3cccnc3)[C@H](O)[C@H](C)O2)Oc2ccc(cc2Cl)[C@H]1O)N(CCc1ccccc1)CCc1ccccc1	> 10 µg/mL	> 10 µg/mL	> 10 µg/mL	> 10 µg/mL
CCC(CC)N[C@H](CC(C)C)C(=O)N[C@H]1C(=O)N[C@@H](CC(N)=O)C(=O)N[C@H]2C(=O)N[C@H]3C(=O)N[C@H](C(=O)N[C@H](C(=O)NCC(=O)O)c4cc(O)cc(O)c4-c4cc3ccc4O)[C@H](O)c3ccc(c(Cl)c3)Oc3cc2cc(c3O[C@@H]2O[C@@H](CO)[C@@H](O)[C@H](O)[C@@H]2O[C@H]2C[C@](C)(Nc3cccnc3)[C@H](O)[C@H](C)O2)Oc2ccc(cc2Cl)[C@H]1O	> 10 µg/mL	> 10 µg/mL	> 10 µg/mL	> 10 µg/mL
CC(C)C[C@H](C(=O)N[C@H]1C(=O)N[C@@H](CC(N)=O)C(=O)N[C@H]2C(=O)N[C@H]3C(=O)N[C@H](C(=O)N[C@H](C(=O)NCC(=O)O)c4cc(O)cc(O)c4-c4cc3ccc4O)[C@H](O)c3ccc(c(Cl)c3)Oc3cc2cc(c3O[C@@H]2O[C@@H](CO)[C@@H](O)[C@H](O)[C@@H]2O[C@H]2C[C@](C)(NC(=O)OCC3c4ccccc4-c4ccccc43)[C@H](O)[C@H](C)O2)Oc2ccc(cc2Cl)[C@H]1O)N(C)C(=O)OCC1c2ccccc2-c2ccccc21	5 µg/mL (≈ 2.56 µM)	> 10 µg/mL	10 µg/mL (≈ 5.13 µM)	5 µg/mL (≈ 2.56 µM)
CCC(CC)N[C@H](CC(C)C)C(=O)N[C@H]1C(=O)N[C@@H](CC(N)=O)C(=O)N[C@H]2C(=O)N[C@H]3C(=O)N[C@H](C(=O)N[C@H](C(=O)NCC(=O)O)c4cc(O)cc(O)c4-c4cc3ccc4O)[C@H](O)c3ccc(c(Cl)c3)Oc3cc2cc(c3O[C@@H]2O[C@@H](CO)[C@@H](O)[C@H](O)[C@@H]2O[C@H]2C[C@](C)(Nc3ccc(F)cc3)[C@H](O)[C@H](C)O2)Oc2ccc(cc2Cl)[C@H]1O	> 10 µg/mL	> 10 µg/mL	> 10 µg/mL	> 10 µg/mL
CC(C)C[C@@H](N)C(=O)N[C@H]1C(=O)N[C@@H](CC(N)=O)C(=O)N[C@H]2C(=O)N[C@H]3C(=O)N[C@H](C(=O)N[C@H](C(=O)NCC(=O)O)c4cc(O)cc(O)c4-c4cc3ccc4O)[C@H](O)c3ccc(c(Cl)c3)Oc3cc2cc(c3O[C@@H]2O[C@@H](CO)[C@@H](O)[C@H](O)[C@@H]2O[C@H]2C[C@](C)(Nc3ccc(F)cc3)[C@H](O)[C@H](C)O2)Oc2ccc(cc2Cl)[C@H]1O	2.5 µg/mL (≈ 1.58 µM)	2.5 µg/mL (≈ 1.58 µM)	2.5 µg/mL (≈ 1.58 µM)	> 10 µg/mL
CCCN(CCC)[C@H](CC(C)C)C(=O)N[C@H]1C(=O)N[C@@H](CC(N)=O)C(=O)N[C@H]2C(=O)N[C@H]3C(=O)N[C@H](C(=O)N[C@H](C(=O)NCC(=O)O)c4cc(O)cc(O)c4-c4cc3ccc4O)[C@H](O)c3ccc(c(Cl)c3)Oc3cc2cc(c3O[C@@H]2O[C@@H](CO)[C@@H](O)[C@H](O)[C@@H]2O[C@H]2C[C@](C)(Nc3ccc(F)cc3)[C@H](O)[C@H](C)O2)Oc2ccc(cc2Cl)[C@H]1O	> 10 µg/mL	> 10 µg/mL	> 10 µg/mL	> 10 µg/mL
CC(C)C[C@@H](Nc1ccc(F)cc1)C(=O)N[C@H]1C(=O)N[C@@H](CC(N)=O)C(=O)N[C@H]2C(=O)N[C@H]3C(=O)N[C@H](C(=O)N[C@H](C(=O)NCC(=O)O)c4cc(O)cc(O)c4-c4cc3ccc4O)[C@H](O)c3ccc(c(Cl)c3)Oc3cc2cc(c3O[C@@H]2O[C@@H](CO)[C@@H](O)[C@H](O)[C@@H]2O[C@H]2C[C@](C)(Nc3ccc(F)cc3)[C@H](O)[C@H](C)O2)Oc2ccc(cc2Cl)[C@H]1O	> 10 µg/mL	> 10 µg/mL	> 10 µg/mL	> 10 µg/mL
CC(C)C[C@@H](NC(=O)OCC1c2ccccc2-c2ccccc21)C(=O)N[C@H]1C(=O)N[C@@H](CC(N)=O)C(=O)N[C@H]2C(=O)N[C@H]3C(=O)N[C@H](C(=O)N[C@H](C(=O)NCC(=O)O)c4cc(O)cc(O)c4-c4cc3ccc4O)[C@H](O)c3ccc(c(Cl)c3)Oc3cc2cc(c3O[C@@H]2O[C@@H](CO)[C@@H](O)[C@H](O)[C@@H]2O[C@H]2C[C@](C)(N)[C@H](O)[C@H](C)O2)Oc2ccc(cc2Cl)[C@H]1O	5 µg/mL (≈ 2.92 µM)	1.25 µg/mL (≈ 0.729 µM)	5 µg/mL (≈ 2.92 µM)	> 10 µg/mL
CC(C)C[C@H](C(=O)N[C@H]1C(=O)N[C@@H](CC(N)=O)C(=O)N[C@H]2C(=O)N[C@H]3C(=O)N[C@H](C(=O)N[C@H](C(=O)NCC(=O)O)c4cc(O)cc(O)c4-c4cc3ccc4O)[C@H](O)c3ccc(c(Cl)c3)Oc3cc2cc(c3O[C@@H]2O[C@@H](CO)[C@@H](O)[C@H](O)[C@@H]2O[C@H]2C[C@](C)(N)[C@H](O)[C@H](C)O2)Oc2ccc(cc2Cl)[C@H]1O)N(C)C(=O)OCC1c2ccccc2-c2ccccc21	10 µg/mL (≈ 5.79 µM)	10 µg/mL (≈ 5.79 µM)	10 µg/mL (≈ 5.79 µM)	> 10 µg/mL
